Results reported in US8513232B2, “Substituted spirocyclic piperidine derivatives as histamine-3 (H3) receptor ligands” (Cephalon, Inc., priority 2008, dated 2013).
Like-named read-outs stand apart in the source and are kept apart here.

Assays:
human H3 receptor = target: T1, human H3 receptor (Homo sapiens, UniProt Q9Y5N1); experiment: Human H3 radioligand binding ([3H]-N-alpha-methylhistamine, SPA); conditions: read-out: Human H3 Ki
T1 construct: expressed in transfected cells
Description: (§1) Methods: CHO cells stably expressing the human H3 receptor (GenBank: NM_007232) were harvested and cell pellets were frozen (−80° C.). Cell pellets were resuspended in 5 mM Tris-HCl, pH 7.5 with […] and a cocktail of protease inhibitors (Complete Protease Inhibitior Tablets, Roche Diagnostics). Cells were disrupted using a polytron cell homogenizer and the suspension was centrifuged at 1000×g for 10 minutes at 4° C. The pellet was discarded and the supernatant centrifuged at 40,000×g for 30 min at 4° C. This membrane pellet was washed in membrane buffer containing 50 mM Tris-HCl, pH 7.5 with 0.6 mM EDTA, 5 mM MgCl2 and protease inhibitors, recentrifuged as above and the final pellet resuspended in membrane buffer plus 250 mM sucrose and frozen at −80° C.
(§2) Radioligand Binding. Membranes were resuspended in 50 mM Tris HCl (pH 7.4), 5 mM MgCl2, 0.1% BSA. The membrane suspensions (10 μg protein per well) were incubated in a 96 well microtiter plate with [^3H]-N-alpha-methylhistamine (approximately 1 nM final concentration), test compounds at various concentrations (0.01 nM-30 μM) and scintillation proximity beads (Perkin Elmer, FlashBlueGPCR Scintillating Beads) in a final volume of 80 μl for 4 hours at room temperature, protected from light. Non-specific binding was determined in the presence of 10 μM clobenpropit. Radioligand bound to receptor, and therefore in proximity to the scintillation beads, was measured using a MicroBeta scintillation counter.

[1] = target: T2, rat histamine H3 receptor (Rattus norvegicus, UniProt Q9QYN8); experiment: Rat H3 radioligand binding ([3H]-N-alpha-methylhistamine, SPA)
T2 construct: encoding the entire 445-amino-acid rat histamine H3 receptor; expressed in transfected cells; membrane preparation
T2 sequence (Q9QYN8 whole entry): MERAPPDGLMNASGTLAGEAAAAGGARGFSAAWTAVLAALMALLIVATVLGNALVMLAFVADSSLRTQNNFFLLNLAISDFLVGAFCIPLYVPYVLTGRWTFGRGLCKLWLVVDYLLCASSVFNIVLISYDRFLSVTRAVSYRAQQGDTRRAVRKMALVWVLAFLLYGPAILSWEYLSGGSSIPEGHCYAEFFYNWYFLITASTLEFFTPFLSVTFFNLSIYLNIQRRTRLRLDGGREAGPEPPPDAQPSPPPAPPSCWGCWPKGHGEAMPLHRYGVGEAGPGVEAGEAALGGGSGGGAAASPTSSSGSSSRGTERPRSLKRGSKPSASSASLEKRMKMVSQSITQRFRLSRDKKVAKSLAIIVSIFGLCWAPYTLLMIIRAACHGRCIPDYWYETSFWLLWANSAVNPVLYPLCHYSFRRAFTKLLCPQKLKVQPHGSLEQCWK
Source text: as §1, with “Cell line development and membrane preparation. The rat” for “Methods: CHO cells stably expressing the human”, “cDNA was PCR amplified from reverse-transcribed RNA pooled from rat thalamus, hypothalamus, striatum and prefrontal cortex with a sequence corresponding to by #338-1672 of Genbank file #NM_053506, encoding the entire 445-amino-acid rat histamine H3 receptor. This was engineered into the pIRES-neo3 mammalian expression vector, which was stably transfected into the CHO-A3 cell line (Euroscreen, Belgium), followed by clonal selection by limiting dilution. Cells” for “(GenBank: NM_007232)”
as §2

[2] = Table C, rat H3 binding, read-out: Rat H3 Ki
[3] = rat H3 binding, Table D, read-out: Rat H3 Ki

T1 sequence (Q9Y5N1 whole entry): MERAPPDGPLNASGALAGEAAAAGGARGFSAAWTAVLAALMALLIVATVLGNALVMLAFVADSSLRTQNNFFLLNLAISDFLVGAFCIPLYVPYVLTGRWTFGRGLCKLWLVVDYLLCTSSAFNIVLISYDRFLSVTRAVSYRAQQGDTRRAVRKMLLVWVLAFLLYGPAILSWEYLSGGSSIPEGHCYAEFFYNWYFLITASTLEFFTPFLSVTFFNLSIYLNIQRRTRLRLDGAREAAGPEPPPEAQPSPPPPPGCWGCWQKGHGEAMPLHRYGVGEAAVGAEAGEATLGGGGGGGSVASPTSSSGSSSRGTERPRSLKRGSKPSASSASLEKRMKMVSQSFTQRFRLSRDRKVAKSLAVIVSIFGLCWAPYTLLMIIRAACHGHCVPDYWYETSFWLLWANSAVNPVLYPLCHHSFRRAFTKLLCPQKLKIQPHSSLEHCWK

| Compound | Ki (human H3 receptor) | Ki ([1]; read-out: Rat H3 kI) | Ki (human H3 receptor; human H3 binding, Table D) | also measured |
| --- | --- | --- | --- | --- |
| c1cc2c(cc1OC1CCNCC1)CCC1(CCN(C3CCC3)CC1)O2 [Example 425] | – | – | – | Ki (human H3 receptor; Table C, human H3 binding): < 200 nM; Ki [1, 2]: < 200 nM |
| c1cn2c(n1)CN(c1ccc3c(c1)CCC1(CCN(C4CCC4)CC1)O3)CC2 [Example 428] | – | – | – | Ki (human H3 receptor; Table C, human H3 binding): < 200 nM; Ki [1, 2]: < 200 nM |
| c1cc2c(cc1OCC1CCCO1)CCC1(CCN(C3CCC3)C1)O2 (stereo not drawn) [Example 445] | 200 to 1000 nM | 200 to 1000 nM | – | – |
| c1cc2c(cc1OCC1CCCO1)CCC1(CCN(C3CCC3)CC1)O2 (stereo not drawn) [Example 449] | < 200 nM | < 200 nM | – | – |
| c1cc2c(cc1OC1CCSCC1)CCC1(CCN(C3CCC3)CC1)O2 [Example 457] | < 200 nM | < 200 nM | – | – |
| c1cc2c(cc1OC[C@H]1CCCO1)CCC1(CCN(C3CCC3)CC1)O2 [Example 464] | < 200 nM | < 200 nM | – | – |
| c1cc2c(cc1OC1CCSC1)CCC1(CCN(C3CCC3)CC1)O2 (stereo not drawn) [Example 484] | < 200 nM | < 200 nM | – | – |
| COc1ccc(CCc2ccc3c(c2)COC2(CCN(C4CCC4)CC2)O3)cn1 [Example 522] | < 200 nM | < 200 nM | – | – |
| CCNC(=O)C1CC=C(c2ccc3c(c2)COC2(CCN(C4CCC4)CC2)O3)CC1 (stereo not drawn) [Example 523] | < 200 nM | < 200 nM | – | – |
| COC1(c2ccc3c(c2)COC2(CCN(C4CCC4)CC2)O3)CC(C(=O)N2CCCC2)C1 (stereo not drawn) [Example 540] | < 200 nM | < 200 nM | – | – |
| CC(C)CN1CC(c2ccc3c(c2)COC2(CCN(C4CCC4)CC2)O3)CCC1=O (stereo not drawn) [Example 564] | < 200 nM | < 200 nM | – | – |
| O=C(O)CCc1ccc2c(c1)COC1(CCN(C3CCC3)CC1)O2 [Example 637] | – | – | 200 to 1000 nM | melting point: 235 to 237 °C |
| c1csc(Cc2ccc3c(c2)COC2(CCN(C4CCC4)CC2)O3)n1 [Example 696] | – | – | < 200 nM | Ki [1, 3]: < 200 nM |
| c1nc(Cc2ccc3c(c2)COC2(CCN(C4CCC4)CC2)O3)cs1 [Example 701] | – | – | < 200 nM | Ki [1, 3]: < 200 nM |
| COCc1cc(=O)n(C)cc1-c1ccc2c(c1)COC1(CCN(C3CCC3)CC1)O2 [Example 790] | – | – | < 200 nM | Ki [1, 3]: < 200 nM |
| CCS(=O)(=O)c1cc(-c2ccc3c(c2)COC2(CCN(C4CCC4)CC2)O3)c[nH]c1=O [Example 807] | – | – | < 200 nM | Ki [1, 3]: < 200 nM |

Second part, led by results:

| Ki (human H3 receptor) | Ki ([1]; read-out: Rat H3 kI) | Ki (human H3 receptor; human H3 binding, Table D) | Compound | also measured |
| --- | --- | --- | --- | --- |
| < 200 nM | < 200 nM | – | O=S1(=O)CCC(COc2ccc3c(c2)CCC2(CCN(C4CCC4)CC2)O3)CC1 [Example 500] | – |
| < 200 nM | < 200 nM | – | CCNC(=O)C1CCC(c2ccc3c(c2)COC2(CCN(C4CCC4)CC2)O3)CC1 (stereo not drawn) [Example 524] | – |
| 200 to 1000 nM | > 1000 nM | – | Cc1cc(-c2ccc3c(c2)COC2(CCN(C4CCC4)CC2)O3)cnc1OCc1ccccc1 [Example 549] | – |
| < 200 nM | < 200 nM | – | Cc1c(-c2ccc(=O)n(C)c2)ccc2c1COC1(CCN(C3CCC3)CC1)O2 [Example 557] | – |
| < 200 nM | < 200 nM | – | CC(C)Cn1cc(-c2ccc3c(c2)COC2(CCN(C4CCC4)CC2)O3)ccc1=O [Example 562] | – |
| < 200 nM | < 200 nM | – | COC1(c2ccc3c(c2)COC2(CCN(C4CCC4)CC2)O3)CCC(C(F)(F)F)CC1 (stereo not drawn) [Example 568] | – |
| – | – | < 200 nM | c1ncc(Cc2ccc3c(c2)COC2(CCN(C4CCC4)CC2)O3)s1 [Example 690] | Ki [1, 3]: < 200 nM |
| – | – | < 200 nM | CC(C)(C)OC(=O)n1cccc1-c1ccc2c(c1)COC1(CCN(C3CCC3)CC1)O2 [Example 706] | Ki [1, 3]: < 200 nM |
| – | – | > 1000 nM | O=c1ccc(-c2ccc3c(c2)COC2(CCN(C4CC(CO)C4)CC2)O3)c[nH]1 (stereo not drawn) [Example 721] | melting point: 228 to 230 °C |
| – | – | < 200 nM | COC(c1ccncc1)c1ccc2c(c1)COC1(CCN(C3CCC3)CC1)O2 (stereo not drawn) [Example 724] | Ki [1, 3]: < 200 nM |
| – | – | < 200 nM | O=C(c1ccncc1)N1CCN(c2ccc3c(c2)COC2(CCN(C4CCC4)CC2)O3)C(=O)C1 [Example 741] | Ki [1, 3]: < 200 nM |
